# In PubChem BioAssay AID1194 (EPA DSSTox, 2008):
# The source made the active and inactive calls.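 How the source made its calls: active means chemicals rated mutagenic or weakly mutagenic in the Salmonella bacterial test by one literature review, or positive overall by another; inconclusive means no clear call, values can overlap the other calls; inactive means the rest.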 Numbered stars: 1 amine (or outer) side, 2 acyl side, 3 side chain; on linkers, the order of the positions; unused ones are H or OH. Bridge positions count the residues as written; N and C are the ends. Square brackets hold non-standard residues; d marks the D form. Peptide text beside a SMILES is read from it. I, II: the chains in the order shown. Actinocin(9to1) = Cc1c2oc3c(C)ccc(C(=O)[*:1])c3nc-2c(C(=O)[*:2])c(N)c1=O; NMeV = CN[C@H](C(=O)O)C(C)C; Sar = CNCC(=O)O
# System: Salmonella typhimurium Ames mutagenicity, literature compiled
# Assay: DSSTox (CPDBAS) Carcinogenic Potency Database Salmonella Mutagenicity
# Method in brief: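 Literature-compiled Salmonella result: chemical called active if rated overall "mutagenic" or "weakly mutagenic" by Zeiger or overall "positive" by the EPA Gene-Tox Program.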
row,Structure (SMILES),outcome
1,O=C1c2cccc(O)c2C(=O)c2c(O)cccc21,active
2,CC(O)CO (stereo not drawn),inactive
3,CC[N+](=O)[O-],inactive; active
4,CN(C)c1ccc(C(=O)c2ccc(N(C)C)cc2)cc1,active; inactive
5,CCC(Br)(CC)C(=O)NC(N)=O,inactive
6,O=C(O)[C@@H]1[C@H](C(=O)O)[C@@]2(Cl)C(Cl)=C(Cl)[C@]1(Cl)C2(Cl)Cl,inactive; active
7,NC(N)=S,inactive; active
8,CC(=O)Oc1ccccc1C(=O)O,inactive
9,CC(=O)NNc1ccccc1,active
10,CN(N=O)C(N)=O,active
11,C=C(C)[C@H]1CC=C(C)CC1,inactive; active
12,CCC(C)c1cc([N+](=O)[O-])cc([N+](=O)[O-])c1O (stereo not drawn),inactive
13,Nc1c(Cl)c(Cl)nc(C(=O)O)c1Cl,inactive; active
14,C=CC(O)c1ccc(OC)cc1 (stereo not drawn),inactive; active
15,Cc1ccc(O)c(O)c1,inactive; active
16,ClC1=C(Cl)[C@@]2(Cl)[C@@H]3[C@@H](Cl)[C@H](Cl)C[C@@H]3C1(Cl)C2(Cl)Cl,inactive; active
17,Clc1ccc(C(c2ccccc2Cl)C(Cl)Cl)cc1 (stereo not drawn),inactive
18,CC1=C(/C=C/C(C)=C/C=C/C(C)=C/C=C/C=C(C)/C=C/C=C(C)/C=C/C2=C(C)CCCC2(C)C)C(C)(C)CCC1,active; inactive
19,C1OC1C1CO1 (stereo not drawn),active
20,C=CF,active; inactive
21,CC1=CC(=O)CC(C)(C)C1,inactive; active
22,CCC1CO1 (stereo not drawn),active
23,Oc1c(Cl)cc(Cl)c(Cl)c1Cc1c(O)c(Cl)cc(Cl)c1Cl,inactive; active
24,C[C@@H]1O[C@@H](OC[C@H]2O[C@@H](Oc3c(-c4ccc(O)c(O)c4)oc4cc(O)cc(O)c4c3=O)[C@H](O)[C@@H](O)[C@@H]2O)[C@H](O)[C@H](O)[C@H]1O,active; inactive
25,Nc1ccc(Oc2ccc(N)cc2)cc1,active
26,Cc1c2ccccc2c(C)c2c1ccc1ccccc12,active

row,Structure (SMILES),outcome
1,[Cl-].[Cl-].[Cl-].[Fe+3],inactive
2,Cc1ccc(Cl)cc1N,inactive; active
3,NC(N)=NC(N)=NCCc1ccccc1,inactive; active
4,C[C@](N)(Cc1ccc(O)c(O)c1)C(=O)O,inactive
5,CCC(Cl)CCC(Cl)C(Cl)CC(Cl)C(Cl)C(Cl)CCl (stereo not drawn),inactive; active
6,CC(C)[N+](=O)[O-],active
7,C#C[C@]1(O)CC[C@H]2[C@@H]3CCc4cc(OC)ccc4[C@H]3CC[C@@]21C,inactive
8,ClC1=C(Cl)[C@]2(Cl)[C@@H]3[C@H]4C=CC(C4)[C@@H]3C1(Cl)C2(Cl)Cl,inactive; active
9,BrCCBr,active
10,O=C/C=C/c1ccccc1,inactive
11,O=C1c2ccccc2C(=O)c2ccccc21,active; inactive
12,NC(=O)c1ccccc1C(N)=O,inactive
13,O=C1CCCO1,inactive; active
14,CCCCCC(N)=O,inactive; active
15,[Na+],inactive
16,C=CCCl,active; inactive
17,CCN(CC)C(=S)S,inactive
18,Clc1ccc(C(c2ccc(Cl)cc2)C(Cl)Cl)cc1,inactive
19,O=C1C(c2[nH]c3ccc(S(=O)(=O)O)cc3c2O)=Nc2ccc(S(=O)(=O)O)cc21,inactive
20,[Cd+2].[Cl-].[Cl-],inactive; active
21,ClC(Cl)(Cl)Cl,inactive; active
22,CCCC[C@H](C)[C@@H](OC(=O)C[C@H](CC(=O)O)C(=O)O)[C@@H](C[C@H](C)C[C@@H](O)CCCC[C@@H](O)C[C@H](O)[C@H](C)N)OC(=O)C[C@H](CC(=O)O)C(=O)O,inactive
23,Oc1ccc(Cl)cc1Cl,inactive; active
24,CN(C)N,active
25,C=CC1CC=CCC1 (stereo not drawn),inactive
26,Cc1cnc2ccc3c(nc(N)n3C)c2n1,active

row,Structure (SMILES),outcome
1,CC1CN(N=O)C(=O)NC1=O (stereo not drawn),active
2,Cc1cc(O)c2c(c1O)C(=O)C13C(=C2O)C(=O)C2C(O)C1C1C(O)C3C(=O)C3=C(O)c4c(O)cc(C)c(O)c4C(=O)C321 (stereo not drawn),inactive; active
3,CC#N,inactive
4,NCC(=O)O,inactive
5,CC(Cl)(Cl)Cl,active
6,COc1cc2c(c3oc4cccc(O)c4c(=O)c13)C1C=COC1O2 (stereo not drawn),active; inactive
7,ClCCl,active; inactive
8,COP(=O)(OC)C(O)C(Cl)(Cl)Cl (stereo not drawn),active
9,CCOP(=S)(OCC)Oc1ccc([N+](=O)[O-])cc1,inactive
10,ClCc1ccccc1,active
11,Cc1ccc(OP(=O)(Oc2ccc(C)cc2)Oc2ccc(C)cc2)cc1,inactive; active
12,CCN(Cc1cccc(S(=O)(=O)O)c1)c1ccc(C(=C2C=CC(=[N+](CC)Cc3cccc(S(=O)(=O)O)c3)C=C2)c2ccc(O)cc2S(=O)(=O)[O-])cc1,inactive; active
13,CN=[N+](C)[O-],active
14,Cl/C=C/CCl,active; inactive
15,Oc1cccc2cccnc12,active; inactive
16,CCCCCC,inactive
17,C=C(Cl)CSC(=S)N(CC)CC,active; inactive
18,CN(N=O)c1cccnc1,inactive; active
19,Nc1ccc(Cc2ccc(N)cc2)cc1,active
20,CC1=NN(c2ccccc2)C(=O)C1,inactive
21,O=[N+]([O-])c1cccc2ccccc12,active
22,C[N+](C)(C)CCO,inactive; active
23,CCCCCCN(N=O)C(N)=O,active
24,O=[N+]([O-])c1ccc2ncccc2c1,active
25,OCl,inactive; active
26,CC(I)C1OCC(CO)O1 (stereo not drawn),active

row,Structure (SMILES),outcome
1,C=CCN(CC=C)N=O,active
2,C=CN1CCCC1=O,inactive
3,CN(C)C(=O)Cl,active
4,O=C1CCCCC1,inactive; active
5,O=NN(CCO)CCO,active; inactive
6,CN(N=O)c1ccncc1,inactive; active
7,C1N2CN3CN1CN(C2)C3,active
8,O=C(O)c1ccc([N+](=O)[O-])cc1,active
9,O=P1(N(CCCl)CCCl)NCCCO1 (stereo not drawn),active
10,COP(=O)(OC)OC,active; inactive
11,OCCBr,active
12,O=c1cc(CO)occ1O,active; inactive
13,OB(O)O,inactive
14,Nc1c(Cl)cc([N+](=O)[O-])cc1Cl,active
15,Nc1nc(N)nc(N)n1,inactive; active
16,Cc1ccc2cc3c(ccc4ccccc43)c3c2c1CC3,active
17,OCCN(CCO)c1nc(-c2cccs2)nc2ccccc12,inactive
18,NNCCO,active; inactive
19,Cc1cc(C)c(S(=O)(=O)O)cc1N=Nc1cc(S(=O)(=O)O)c2ccccc2c1O,inactive; active
20,c1ccc2c(c1)Nc1ccccc1S2,inactive
21,O=C(O)C1[O][Sb]2[O]C(=O)C([O]2)C(C(=O)O)[O][Sb]2[O]C(=O)C1[O]2 (stereo not drawn),inactive
22,O=NN1CCNCC1,active
23,O=NN1CCC(=O)NC1=O,active; inactive
24,CCN(CC)C(=S)S[Te](SC(=S)N(CC)CC)(SC(=S)N(CC)CC)SC(=S)N(CC)CC,inactive
25,Cc1c(N(C)C)c(=O)n(-c2ccccc2)n1C,active
26,CC(=O)Nc1nc(NC(C)=O)nc(-c2ccc([N+](=O)[O-])o2)n1,active; inactive

row,Structure (SMILES),outcome
1,CC(Cl)Cl,inactive; active
2,O=[N+]([O-])c1ccc(Cl)cc1,active
3,C/C=C/C=C/C=O,active
4,O=C1N(CCO)CCN1/N=C/c1ccc([N+](=O)[O-])o1,active
5,CCCCN(CCCC)N=O,active; inactive
6,COc1ccccc1[N+](=O)[O-],active
7,Nc1nc(-c2ccc([N+](=O)[O-])o2)cs1,active
8,CN(C)C(=O)Nc1cccc(C(F)(F)F)c1,inactive
9,Cc1cc2ncccc2c2nc(N)n(C)c12,active
10,"Cc1c2oc3c(C)ccc(C(=O)N[C@@H]4C(=O)N[C@H](C(C)C)C(=O)N5CCC[C@H]5C(=O)N(C)CC(=O)N(C)[C@@H](C(C)C)C(=O)O[C@@H]4C)c3nc-2c(C(=O)N[C@@H]2C(=O)N[C@H](C(C)C)C(=O)N3CCC[C@H]3C(=O)N(C)CC(=O)N(C)[C@@H](C(C)C)C(=O)O[C@@H]2C)c(N)c1=O (I: T[dV]P[Sar][NMeV] / II: T[dV]P[Sar][NMeV]; ester I:1-I:C, II:1-II:C; linker I:N-II:N via Actinocin(9to1))",inactive; active
11,COc1ccc(C(Cl)=C(c2ccc(OC)cc2)c2ccc(OC)cc2)cc1,inactive
12,COc1cc(-c2ccc(N)c(OC)c2)ccc1N,active; inactive
13,CCO,inactive; active
14,Cc1ccc(N=C=O)cc1N=C=O,active
15,CC(=O)OC[C@]12C[C@H](OC(=O)CC(C)C)C(C)=C[C@H]1O[C@@H]1[C@H](O)[C@@H](OC(C)=O)[C@@]2(C)C12CO2 (stereo partly drawn),inactive
16,Nc1ccc(N)c2c1C(=O)c1c(N)ccc(N)c1C2=O,active
17,CNNC,active
18,C=Cc1cccc(C)c1,inactive; active
19,CC(=O)c1ccc(S(=O)(=O)NC(=O)NC2CCCCC2)cc1,inactive
20,O=S(=O)(O)c1ccc2c(N=Nc3ccc(S(=O)(=O)O)c4ccccc34)c(O)c(S(=O)(=O)O)cc2c1,inactive
21,Nc1nc(N)c2nc(-c3ccccc3)c(N)nc2n1,inactive; active
22,N[C@@H](Cc1c[nH]c2ccccc12)C(=O)O,inactive; active
23,COc1cccc2c1C(=O)c1c(O)c3c(c(O)c1C2=O)C[C@@](O)(C(=O)CO)C[C@@H]3O[C@H]1C[C@H](N)[C@H](O)[C@H](C)O1,active
24,CCCCCCCCCCCCCCCC(=O)OC/C=C(C)/C=C/C=C(C)/C=C/C1=C(C)CCCC1(C)C,inactive; active
